Reference: patent US5858410A, “Pharmaceutical nanosuspensions for medicament administration as systems with increased saturation solubility and rate of solution” (Medac Gesellschaft Fur Klinische Spezialpraparate, priority 1994, dated 1999)

Assay: Particle size of suspensions by PCS / laser diffractometer (LD)
Type: physicochemical
Excerpt: Wet grinding has been employed as a further grinding technique (Sandell, E., Grundriss der Galenischen Pharmazie [Principles of galenical pharmacy], Govi-Verlag GmbH, Frankfurt am Main, 1962), for example using a Premier Mill (Sandell, loc. cit.) or a ball or pearl mill (Hagers Handbuch der pharmazeutischen Praxis [Hagers handbook of pharmaceutical practice], Springer-Verlag, Berlin, 1925). Although a main population of particles in the nanometer range results when a pearl mill is used, a significant proportion of particles larger than 1 μm is still present. […] RNXP 22 was ground (Dispermat) in a pearl mill without addition of surfactant (FIG. 2: A) and with addition of 3% Tween 80 (FIG. 2: A+surfactant). The 50% diameter of the surfactant-free sample is already approx. 2 μm, i.e. 50% of the particles are >2 μm. Some of these micrometer particles can be attributed to agglomeration. As described in the literature (Sandell, loc. cit.; P. H. List, Arzneiformenlehre [Drug forms], Wissenschaftliche Verlagsgesellschaft mbH Stuttgart, 1976; Sucker, H., Speiser, P., Fuchs, P., Pharmazeutische Technologie [Pharmaceutical technology], George Thieme Verlag Stuttgart, 1978; Munzel, K., Buchi, J., Schultz, O.-E., Galenisches Praktikum [Practical galenics], Wissenschaftliche Verlagsgesellschaft mbH Stuttgart, 1959), aggregation in suspensions can be prevented by addition of surfactants (Tween 80, Pluronic F 68) or generally stabilizers (e.g. polyvinylpyrrolidone--PVP, Pluronic F 68). […] As a rule, this is also recommended by manufacturers of mills (e.g. Dyno-Mill, A. Bachoffen AG Maschinenfabrik). Surfactant-stabilized microparticles have also been patented (U.S. Pat. No. 5,246,707), it also being possible for these additionally to comprise iron particles within the microparticles in order to allow location of the particles via magnetic fields.
Another preparation method which has been known for a long time is "via humida paratum", precipitation by pouring a solution of the active compound into a non-solvent (Hagers Handbuch der pharmazeutischen Praxis [Hagers handbook of pharmaceutical practice], Springer-Verlag, Berlin, 1925). By pouring into the non-solvent, the Ostwald Mie range is rapidly passed through and a very fine precipitate separates out. The particles which have precipitated out likewise have a significant proportion in the micrometer range. […] The drug was dissolved in ethanol (3%, 20 ml) and the solution poured into 100 ml of an aqueous surfactant solution (1.2% Pluronic F68). The end of the measuring range is 80 μm, and a large fraction between approx. 18 μm to 80 μm was detected.
The powdered drug (ground in an air jet, particles up to more than 25 μm) was rubbed in a grinding dish with a concentrated surfactant solution for wetting, and the remaining aqua dest. was then added, while stirring. Alternatively, the drug powder can also be introduced into a surfactant solution by stirring. […] The average particle diameter of the parent suspensions (=suspension with 0 cycles), measured with the laser diffractometer, and of the resulting nanosuspensions by PCS (PI=polydispersity index):
Preparation of the suspension and subsequent homogenization as in example 1. […] To monitor the decrease in the particles also in the size range from 1 μm to several μm as a function of the number of cycles, the samples were analysed with the LD. The results were evaluated by plotting the 99% diameter against the number of cycles (FIG. 6). […]

[1] = ground in an air jet, LD (FIG. 1)

**Q.** Which “50% LD diameter” value (ground in a pearl mill, surfactant-free sample (FIG. 2: A)) does the source give for `C[C@@H]1CN(c2nc(N(CCO)CC(C)(C)O)c3nc(-c4ccccc4)c(N4C[C@@H](C)O[C@@H](C)C4)nc3n2)C[C@H](C)O1` [RMKP 22, 4-[N-(2-hydroxy-2-methylpropyl)-ethanolamine]-2.7-bis(cis-2.6-dimethylmorpholin-4-yl)-6-phenyl-pteridine] here?
**A.** approx. 2 μm

**Q.** What about the “particles >1 μm” value [1] of the same compound?
**A.** 92%

**Q.** What about the “particles in the range below 1,000 nm” value [1] of the same compound?
**A.** 8%

**Q.** And the “particles smaller than 25 μm” value [1]?
**A.** 100%

**Q.** What about the “effect of surfactant on diameters of the volume distribution” value (pearl mill, addition of 3% Tween 80 (FIG. 2: A+surfactant)) of the same compound?
**A.** only a slight reduction in the diameters of the volume distribution
